# What was measured:
# [1] = Pharmacokinetics of 5-MeO-DMT and bufotenine after a single inhaled dose; type: in vivo, human
# Procedure: Blood samples were obtained at 1; 2; 4; 7; 10; 15; 20; 30; 45 min and 1; 1.5; 2; 3; 4 hours after administration.
# PK parameters were generated by algebraic analysis of the concentration versus time plots for each individual. The analysis was carried out using the software Phoenix WinNonlin 6.3.
# [2] = test system: patients with postpartum depression (PPD); assay: Open-label clinical trial of inhaled 5-MeO-DMT (single-day IDR) in postpartum depression; one patient so far, received 6 mg then 12 mg
# Procedure: The single-arm, open-label clinical trial will involve 15 adult female patients with clinically diagnosed postpartum depression (PPD).
# The second dose (12 mg) will only be administered if: • a. […] The 6 mg dose was safe and well-tolerated according to the investigator, • c. Any psychoactive effects (PsE) of the prior dose have subsided, and • d. Pre-dose vital parameters and forced expiratory volume in one second (FEV1) are in normal range, or if outside of the normal range, are not clinically significant according to the investigator. • 3. Similarly, a third dose (18 mg) will only be administered if: • a. […] The 12 mg dose was safe and well-tolerated according to the investigator, and • c. Any PsE of the prior dose have subsided, and • d. Pre-dose vital parameters and forced expiratory volume in one second (FEV1) are in normal range, or if outside of the normal range, are not clinically significant according to the investigator.
# The patients will be assessed for a peak psychedelic experience (based on a patient-scored visual analogue scale, the PE scale), sedation, and other endpoints after dosing.
# Follow-up visits are planned for Day 1, and Day 7 after the dosing day.
# The following criteria must be met by all patients considered for clinical trial participation: • 1. Is female and in the age range between 18 and 45 years (inclusive) at screening. • 2. Has a body mass index (BMI) in the range of 18.5 and 35 kg/m^2 (inclusive) at screening. • 3. Meets the trial criteria for PPD as assessed by a trial psychiatrist or registered psychologist: • a. Diagnosis of Major Depressive Disorder without psychotic features, confirmed by the Mini-International Neuropsychiatric Interview (MINI), with peri-partum onset that began no earlier than gestation and no later than the first 4 weeks postpartum. • b. Has a Montgomery-Åsberg Depression Rating Scale (MADRS) total score of equal to or greater than 28 at screening and pre-dose on Day 0. • 6. […] Patients must have a negative pregnancy test at screening and on the pre-test day (Day-1). • 5. Is willing to delay start of other antidepressant or anxiety medication until after the end of the trial at Day 7 and agrees to keep any psychotherapy unchanged during the trial.
structure (smiles),measurement,setting,value
COc1ccc2[nH]cc(CCN(C)C)c2c1 [5-MeO-DMT],Detectability in plasma,"[1]; after 3 hours, 6, 12, 18 mg",no longer detectable
same,Accumulation upon repeated administration,[1]; within a time frame of 1 to 4 hours,No accumulation
same,"ECG (3 hours), safety laboratory analyses (7 days), CADSS (3 hours, 1 day, 7 days)",[2]; n=1,unremarkable
same,MADRS response (>=50% improvement) and remission (total <=10) criteria,[2]; n=1,fulfilled standard criteria for MADRS response
same,Onset of clinical response,[2]; n=1,≤ 2 h
same,Time to clinical remission,[2]; n=1,≤ 2 h
same,Tolerability of inhalation procedure,[2]; n=1,well tolerated with no inhalation-related adverse events
same,Total MADRS improvement,"[2]; n=1, 2 hr",24
same,Total MADRS score,"[2]; n=1, 2 hr, baseline 29",5
same,"Reported adverse events (cramping left abdominal pain, headache)","[2]; n=1, Day 0","mild, short-lasting and resolved spontaneously"
same,BPRS Tension improvement,"[2]; n=1, Day 1",5
same,Total MADRS improvement,"[2]; n=1, Day 1",29
same,Total MADRS score,"[2]; n=1, Day 1, baseline 29",0
same,Total MADRS improvement,"[2]; n=1, Day 7",28
same,BIMF functional domain Adjustment score,"[2]; n=1, Day 7, Day 0 5, maximum 12",6
same,BIMF functional domain Self-Care score,"[2]; n=1, Day 7, Day 0 9, maximum 18",13
same,BIMF functional domain Infant Care score,"[2]; n=1, Day 7, Day 0 12, maximum 12",12
same,BIMF functional domain Mother-Child Interaction score,"[2]; n=1, Day 7, Day 0 15, maximum 18",17
same,BIMF functional domain Social Support score,"[2]; n=1, Day 7, Day 0 17, maximum 18",18
same,BIMF functional domain Management score,"[2]; n=1, Day 7, Day 0 28, maximum 36",33
same,BIMF functional domain Psychological Well-being score,"[2]; n=1, Day 7, Day 0 44, maximum 60",53
same,"BIMF item 19 (As time goes on, I am getting better at taking care of my baby) score","[2]; n=1, Day 7, Day 0 score 0",1
same,BIMF item 16 (I worry about how other people judge me (as a mother)) score,"[2]; n=1, Day 7, Day 0 score 3",5
same,BIMF item 13 (I am taking good care of my physical needs) score,"[2]; n=1, Day 7, Day 0 score 4",5
same,BIMF item 5 (I am able to relax and enjoy time with my baby) score,"[2]; n=1, Day 7, Day 0 score 5",6
same,BIMF item 9 (I am getting enough encouragement from other people) score,"[2]; n=1, Day 7, Day 0 score 5",6
same,BIMF item 10 (I trust my own feelings (instincts) when it comes to taking care of my baby) score,"[2]; n=1, Day 7, Day 0 score 5",6
same,BIMF item 11 (I take a little time each week to do something for myself) score,"[2]; n=1, Day 7, Day 0 score 5",6
same,BIMF item 17 (I am able to take care of my baby and my other responsibilities) score,"[2]; n=1, Day 7, Day 0 score 5",5
same,BIMF item 3 (I am comfortable with the way I've chosen to feed my baby) score,"[2]; n=1, Day 7, Day 0 score 6",6
same,BIMF item 6 (There are people in my life that I can trust to care for my baby when I need a break) score,"[2]; n=1, Day 7, Day 0 score 6",6
same,BIMF item 8 (I am getting enough adult interaction) score,"[2]; n=1, Day 7, Day 0 score 6",6
same,BIMF item 12 (I am taking good care of my baby's physical needs) score,"[2]; n=1, Day 7, Day 0 score 6",6
same,BIMF item 14 (I make good decisions about my baby's health and well being) score,"[2]; n=1, Day 7, Day 0 score 6",6
same,BIMF item 20 (I am satisfied with the job I am doing as a new mother) score,"[2]; n=1, Day 7, Day 0 score 6",5
same,Total MADRS score,"[2]; n=1, Day 7, baseline 29",1
same,BIMF total score improvement,"[2]; n=1, Day 7, from 92",14%
same,BIMF TOTAL Δ,"[2]; n=1, Day 7 vs Day 0",13
same,BIMF functional domain Adjustment % Improvement,"[2]; n=1, Day 7 vs Day 0",20.00%
same,BIMF functional domain Adjustment Δ,"[2]; n=1, Day 7 vs Day 0",1
same,BIMF functional domain Infant Care % Improvement,"[2]; n=1, Day 7 vs Day 0",0.00%
same,BIMF functional domain Infant Care Δ,"[2]; n=1, Day 7 vs Day 0",0
same,BIMF functional domain Management % Improvement,"[2]; n=1, Day 7 vs Day 0",18%
same,BIMF functional domain Management Δ,"[2]; n=1, Day 7 vs Day 0",5
same,BIMF functional domain Mother-Child Interaction Δ,"[2]; n=1, Day 7 vs Day 0",2
same,BIMF functional domain Psychological Well-being Δ,"[2]; n=1, Day 7 vs Day 0",9
same,BIMF functional domain Self-Care % Improvement,"[2]; n=1, Day 7 vs Day 0",44%
same,BIMF functional domain Self-Care Δ,"[2]; n=1, Day 7 vs Day 0",4
same,BIMF functional domain Social Support Δ,"[2]; n=1, Day 7 vs Day 0",1
same,BIMF item 1 (I am a good mother) Δ,"[2]; n=1, Day 7 vs Day 0",0
same,BIMF item 2 (I feel rested) Δ,"[2]; n=1, Day 7 vs Day 0",2
same,BIMF item 3 (I am comfortable with the way I've chosen to feed my baby) Δ,"[2]; n=1, Day 7 vs Day 0",0
same,BIMF item 4 (My baby and I understand each other) Δ,"[2]; n=1, Day 7 vs Day 0",0
same,BIMF item 5 (I am able to relax and enjoy time with my baby) Δ,"[2]; n=1, Day 7 vs Day 0",1
same,BIMF item 6 (There are people in my life that I can trust to care for my baby when I need a break) Δ,"[2]; n=1, Day 7 vs Day 0",0
same,BIMF item 8 (I am getting enough adult interaction) Δ,"[2]; n=1, Day 7 vs Day 0",0
same,BIMF item 9 (I am getting enough encouragement from other people) Δ,"[2]; n=1, Day 7 vs Day 0",1
same,BIMF item 10 (I trust my own feelings (instincts) when it comes to taking care of my baby) Δ,"[2]; n=1, Day 7 vs Day 0",1
same,BIMF item 11 (I take a little time each week to do something for myself) Δ,"[2]; n=1, Day 7 vs Day 0",1
same,BIMF item 12 (I am taking good care of my baby's physical needs) Δ,"[2]; n=1, Day 7 vs Day 0",0
same,BIMF item 13 (I am taking good care of my physical needs) Δ,"[2]; n=1, Day 7 vs Day 0",1
same,BIMF item 14 (I make good decisions about my baby's health and well being) Δ,"[2]; n=1, Day 7 vs Day 0",0
same,BIMF item 15 (My baby and I are getting into a routine) Δ,"[2]; n=1, Day 7 vs Day 0",1
same,BIMF item 16 (I worry about how other people judge me (as a mother)) Δ,"[2]; n=1, Day 7 vs Day 0",2
same,BIMF item 17 (I am able to take care of my baby and my other responsibilities) Δ,"[2]; n=1, Day 7 vs Day 0",0
same,BIMF item 18 (Anxiety or worry often interferes with my mothering ability) Δ,"[2]; n=1, Day 7 vs Day 0",3
same,"BIMF item 19 (As time goes on, I am getting better at taking care of my baby) Δ","[2]; n=1, Day 7 vs Day 0",1
same,BIMF item 20 (I am satisfied with the job I am doing as a new mother) Δ,"[2]; n=1, Day 7 vs Day 0",−1
same,BPRS Tension improvement,"[2]; n=1, Discharge",5
same,Vital parameters,"[2]; n=1, shortly after administration","temporary, clinically non-relevant increase in heart rate and blood pressure"
